Earlier results as cited in article PMC10640708 (ACS chemical biology, 2018).

Target: calcium sensing receptor (CaSR)
Conditions: read-out: EC50 of CaSR activation; Ca2+ alone

- EC50: ~4 mM
Structure (SMILES): [Ca+2] [Ca^2+]
